Patent publication US20250161264A1, “(AMPAR-PAM)-NMDA RECEPTOR ANTAGONIST COMBINATION THERAPY FOR TREATMENT OF MENTAL CONDITIONS AND DISORDERS” (Gilgamesh Pharmaceuticals, Inc., priority 2022, published 2025)

Legend:
Male Sprague Dawley rats = test: Rat forced swim test (FST); format: in vivo; details: Example 3; Compound 18R 1, 3.2 or 10 mg/kg s.c., second injection vehicle or BIIB-104 0.03 mg/kg; 23.5 h before Swim 2
Description: Animals. Male Sprague Dawley rats, aged 8-10 weeks, are used in the experiments. Animals are housed in groups of 2 under controlled temperature (22±3° C.) and relative humidity (30-70%) conditions, with 12-hour light/dark cycles, and with ad libitum food and water. All efforts are made to minimize suffering.
Drugs and Drug Administration. Test compounds, vehicle, and the positive control desipramine are administered subcutaneously (s.c.), with doses calculated based on the free base. A pharmacologically inert vehicle is used. All compounds are administered at a volume of 5 mL/kg. Test compounds (in each case, an AMPAR-PAM+an NMDAR-ant together, or either compound alone) and vehicle are administered 0.5 h after the start of the training swim (Swim 1) and 23.5 h before the test swim (Swim 2). Desipramine is administered 3 times, at 23.5 h, 5 h, and 1 h before the test swim (Swim 2), each time at a dose of 20 mg/kg.
Forced Swim Test (FST). […] Group size is N=10 per treatment. […]
Behavioral scoring is conducted by observers who are blind to the treatment groups. Animals are continuously observed during Swim 2 and the total time spent engaging in the following behaviors is recorded: immobile, swimming, and climbing. […]
Drugs and Drug Administration. Test compounds, vehicle, and the positive control desipramine are administered subcutaneously (s.c.), with doses calculated based on the free base. […]

[1] = system: Male Wistar Han or Wistar Kyoto rats; test: Chronic mild stress (CMS) procedure, sucrose intake; format: in vivo, rat; details: stressed rats
Description: (§1) Animals. Male Wistar Han or Wistar Kyoto rats (Charles River, Sulzfeld, Germany) are brought into the laboratory at the age of 5 weeks (around 100 g), approximately one month before the start of the experiment. Except for the first 10 days after arrival, when the animals are housed in groups of 10, they are singly housed with food and water freely available, and maintained on a 12-h light/dark cycle in constant temperature (22±2° C.) and humidity (45±5%) conditions.
(§2) Drugs and Drug Administration. Test compounds or vehicle are administered subcutaneously (s.c.), with doses calculated based on the free base. A pharmacologically inert vehicle (e.g., saline) is used. All compounds are administered at a volume of 2 mL/kg. Test compounds (in each case, BIIB-104+Compound 18R together, or either compound alone) and vehicle are administered as described below.
Chronic Mild Stress (CMS) Procedure and Sucrose Preference. Male rats (250-350 g) are habituated to drinking 1% sucrose to establish a stable level of sucrose intake. […]
(§3) After sucrose intake has been measured, rats are dosed with BIIB-104 or vehicle once daily for up to 4 weeks (Table 1).
Sucrose intake is measured once per week, in each case before drug administration for that day (˜24 h after the previous drug administration). […]

[2] = system: Male Wistar Han or Wistar Kyoto rats; test: Elevated plus maze (EPM) in CMS rats; format: in vivo, rat; details: stressed rats; third week of drug testing (typically day 16); 5-min test
Description: as §1
Drugs and Drug Administration. Test compounds or vehicle are administered subcutaneously (s.c.), with doses calculated based on the free base. A pharmacologically inert vehicle (e.g., saline) is used. […]
as §3
Elevated Plus Maze (EPM), Animals are tested in two non-transparent boxes, which consist of two open (50×11×40 cm) and two closed (50×11×40 cm) arms. […] The animals are placed in the center of the apparatus and the time spent in each arm, and number of entries into open and closed arms are recorded during a 5-min test.
All rats (all groups in Table 1) are assessed in the EPM in the third week of drug testing (typically day 16). Stressed vehicle-treated rats (S1) have higher levels of anxiety measured by a lower % time spent in open arms compared to control vehicle-treated rats (C1). […]

[3] = system: Male Wistar Han or Wistar Kyoto rats; test: Novel object recognition (NOR) test in CMS rats; format: in vivo, rat; details: stressed rats; third week of drug testing (typically day 17)
Description: as §1
Drugs and Drug Administration. Test compounds or vehicle are administered subcutaneously (s.c.), with doses calculated based on the free base. A pharmacologically inert vehicle (e.g., saline) is used. All compounds are administered at a volume of 2 mL/kg. […]
as §3
Novel Object Recognition (NOR) Test. […] Rats are returned to the open field and the duration of exploration of each object is recorded in a 5-min test. A recognition index is calculated according to the formula: time of novel object exploration minus time of familiar object exploration, divided by total exploration time (novel plus familiar objects). During NOR sessions, the number of line crossings is recorded as a measure of locomotor activity.
All rats (all groups in Table 1) are assessed in the NOR in the third week of drug testing (typically day 17). […]

Male C57BL/6 mice [4] = test: Accelerating rotarod; format: in vivo, mouse; details: Compound 18R 3.2, 10 or 32 mg/kg s.c.; BIIB-104 0.03 mg/kg s.c. 0-30 min prior; 5 min and 30 min after second injection
Description: Animals. Male C57BL/6 mice (8-10 weeks old) are housed in groups of >2 under standard environmentally controlled conditions (22 to 24° C.; relative humidity of 30 to 70%) with a standard 12-h light cycle. Food and water are available ad libitum.
as §2, with “compounds and” for “compounds or”, “vehicle” for “vehicle (e.g., saline)”, “of 10” for “of 2”
Rotarod Procedure. Mice will be trained to stay on a rotating bar (‘rotarod’) on days −4 and −2 by being placed on a bar rotating at 4 rpm for 3 min for 3 sessions separated by ˜10 min. On days −1 and 0, this will be repeated using a faster speed of 15 rpm. Mice that have a fall latency <80 s during training will be omitted from the study. On day 1, mice will be administered (s.c.) vehicle or BIIB-104 (0.03 mg/kg) 0-30 min prior to vehicle or Compound 18R (3.2, 10, or 32 mg/kg), for a total of 8 groups of n=10-12/group. Five min after the second injection, mice will be placed on the rotarod which will accelerate from 4 to 40 rpm over 300 s. The latency of mice to fall will be recorded. […]

Male C57BL/6 mice [5] = test: Visual discrimination task; format: in vivo, mouse; details: Compound 18R 10, 32 or 100 mg/kg s.c.; BIIB-104 0.03 mg/kg s.c. 0-30 min prior
Description: Animals Male C57BL/6 mice (8-10 weeks old) are housed in groups of >2 under standard environmentally controlled conditions (22 to 24° C.; relative humidity of 30 to 70%) with a standard 12-h light cycle. Five days prior to the start of operant conditioning experiments, all subjects are placed on a food restriction diet designed to maintain a stable 80-85% of free feeding weight.
Drugs and Drug Administration. Test compounds and vehicle are administered subcutaneously (s.c.), with doses calculated based on the free base. A pharmacologically inert vehicle is used. All compounds are administered at a volume of 10 mL/kg. Test compounds (in each case, BIIB-104+Compound 18R together, or either compound alone) and vehicle are administered as described below. Mice are tested in a randomized cross-over design such that different compound combinations are tested in the same mice and a sample size of n=8-12/group is achieved. Compound testing sessions are separated by at least 3 days.
Visual Discrimination Procedure. A cohort of mice is trained to perform the visual discrimination task according to published methods (Dillon et al., 2009, Behavioural Brain Research 204, 67-76). The testing apparatus is a standard operant chamber (Med Associates, St Albans, VT). […]

## CN[C@@]1(c2ccc(F)cc2)CCCCC1=O [Compound 18R]
Male Sprague Dawley rats
  immobility time: dose-dependent decrease in immobility time
[1]; vs vehicle-treated stressed rats, Compound 18R 1.5 mg/kg i.p. day 1, 24 h later
  sucrose intake: increase in sucrose intake
[1]; Compound 18R day 1, then vehicle (S2) or BIIB-104 0.03 mg/kg s.c. (S4) daily days 2-28
  durability of the effect on sucrose intake: 1-2 weeks
[2]
  time spent in open arms: greater time in the open arms than stressed vehicle-treated rats (S1), but less time than unstressed vehicle-treated rats (C1)
[3]
  preference for the novel object (recognition index): limited preference for exploring the novel object
Male C57BL/6 mice [4]
  latency to fall off the rotarod: dose-dependently reduces the latency of mice to fall
Male C57BL/6 mice [5]
  visual discrimination test accuracy: dose-dependently decreases visual discrimination test accuracy

## pesampator [BIIB-104, reference compound]
Male C57BL/6 mice [4]
  latency to fall off the rotarod: does not change latency to fall
